Measurements as given in patent US11622950B2.

Tests used:
[1] = Clinical study of CPI-613 Drug Compound with gemcitabine hydrochloride and nab-paclitaxel: tolerance; assay type: in vivo; details: 500 mg/m^2 with Gemcitabine+nab-paclitaxel on days 1 and 15, human patients
Source text: Human patients suffering from locally advanced or metastatic pancreatic cancer are to be administered 6,8-bis(benzylsulfanyl)octanoic acid triethanolamine ion pair in combination with gemcitabine hydrochloride and nab-paclitaxel. Experimental procedures are described below.
[…] CPI-613 Drug Compound is 6,8-bis(benzylsulfanyl)octanoic acid triethanolamine ion pair.

[2] = tested on: BxPC3 pancreatic cancer cells; assay: Oral anti-tumor efficacy in human BxPC3 pancreatic cancer xenografts in mice; assay type: in vivo, CD-1 nude mice; details: BxPC3 xenograft; oral dose of 100 mg/week for 4 weeks; versus 5% dextrose or untreated
Procedure: An acclimation period of 7 days was allowed between the arrival of the animal at the study site before tumor inoculation and experimentation. Mice were inoculated subcutaneously (SC) in the right flank with 2×10^6 human H460 NSCLC or BxPC3 pancreatic cancer cells that were suspended in 0.1 mL of Dulbeco's Phosphate Buffered Salt (PBS) solution using a 1 cc syringe with a 27-⅝ gauge needle. Tumor dimensions (length and width) were measured daily before, during and after treatment (using Vernier calipers) and the tumor volume was calculated using the prolate ellipsoid formula: (length×width^2)/2. Treatment with test or control articles began 8 days post tumor cell implantation when the tumor was approximately 300 mm^3.
A similar study was conducted in CD-1 nude mice (n=9) inoculated with 2×10^6 BxPC-3 cells. The study was initiated when tumors reached an average size of 150 mm^3 (day 0) and CPI-613 was administered at an oral dose of 100 mg/week for 4 weeks. A comparator arm (n=9) was conducted with IP treatment at a weekly dose of 25 mg/kg.

[3] = tested on: human H460 NSCLC cells; assay: Oral anti-tumor efficacy in human H460 NSCLC xenografts in mice; assay type: in vivo, CD1-Nu/Nu female mice; details: H460 xenograft; oral 100 mg/kg on day 8, 15, 22, 29; versus 5% dextrose or untreated
Procedure: Human H460 NSCLC cells were obtained from American Type Cell Culture (ATCC) (catalog no. HTB-177, Manassas, Va.). These cells tested negative for viral contamination using the Mouse Antibody Production (MAP) test, performed by Charles River Labs Molecular Division, upon the receipt of the tumor cells from ATCC. The tumor cells were maintained at […] in a humidified 5% CO2 atmosphere in T225 tissue culture flasks containing 50 mL of Roswell Park Memorial Institute (RPMI)-1640 solution with 10% Fetal Bovine Serum (FBS) and 2 mM L-glutamine. Cells were split at a ratio of 1:10 every 2-3 days by trypsinization and resuspended in fresh medium in a new flask. Cells were harvested for experiments in the same way at 70-90% confluency.
CD1-Nu/Nu female mice, ˜4-6 weeks old were obtained from Charles River Laboratories. Mice were housed 5 to a cage in a micro-isolator room in the Department of Animal Laboratory Research of New York State University (SUNY) at Stony Brook. Light-dark cycles were 12 h each daily, with light from 7 a.m. to 7 p.m. […]
An acclimation period of 7 days was allowed between the arrival of the animal at the study site before tumor inoculation and experimentation. […] Tumor dimensions (length and width) were measured daily before, during and after treatment (using Vernier calipers) and the tumor volume was calculated using the prolate ellipsoid formula: (length×width^2)/2. […]

Row | Structure (SMILES) | tolerance of regimen [1] | tumor growth [2] | tumor growth [3]
1 | O=C(O)CCCCC(CCSCc1ccccc1)SCc1ccccc1.OCCN(CCO)CCO (stereo not drawn) [CPI-613 Drug Compound, 6,8-bis(benzylsulfanyl)octanoic acid triethanolamine ion pair] | excellent tolerance | – | –
2 | O=C(O)CCCCC(CCSCc1ccccc1)SCc1ccccc1 (stereo not drawn) [6,8-bis(benzylsulfanyl)octanoic acid] | – | especially pronounced | grew much more slowly
